Laboratory results from patent US8901177B2, “Method of treating bladder disorders” (Targacept, Inc., priority 2012, dated 2014).
Entries after “also recorded” stand apart in the source; their conditions may differ.

Tests used:
human α3β4 channels = target: T1, human α3β4 channels (Homo sapiens, UniProt P30926+P32297); assay: Use-dependent inhibition of human α3β4 channels expressed in CHO cells (Dynaflow electrophysiology); type: cell-based
T1 construct: host or cells: CHO cells
Procedure: There was an assumption that the dependence on the number of co-applications would be the most relevant to clinical concentrations, since upon the time of exposure in vivo, the number of open channels could reach substantial numbers; perhaps due to channel spontaneous opening, flickering, and endogenous transmitter release as a result of brain activity. All experiments were performed using a conventional Dynaflow (Cellectricon Inc.) electrophysiological system. Dynaflow settings: To achieve continuous exposure to the drug we used following Dynaflow chip loading. An example of standard chip loading for use-dependent experiments with example for 30 μM ACh and 0.1 μM of TC-05231 (racemic mecamylamine). For the following experiments, ACh always consisted of 30 μM and concentrations of compounds were, 0.03, 0.1, 0.3 and 1.0 (μM). FIG. 13 illustrates the settings.
Applications were performed by positioning the cell in front of channel #1 for 1 second, followed by channel #3, then back to channel #1 by rapidly moving the Dynaflow chip, which consisted of both the laminar flow from the channels and the entire bath solution. The additional channels between control and ACh-containing channel were used: (1) to provide the needed space for an additional washout to avoid contaminating the control channels with the agonist solution; and (2) to allow for the necessary amount of time for the Dynaflow stage to reach its optimum scanning speed.
3.1. Establishment of recording baseline: First, pipette with cells moved to channel #3. Then cells were exposed to ACh by moving cells to channel #1 for 1 second and back to channel #3. This movement of cells was repeated 10 times at 30 second intervals;
3.2. Collection data on use-dependent inhibition: After establishment of stable baseline, cells were moved to channel #6 and exposed to a test compound for 30 sec. Then cells were moved to channel #8 for 1 second and back to channel #6 for 30 seconds (total 10 times with intervals 30 seconds); and 3.3. To test reversibility of block (washout): repeat step 1. Note: with this chip setting, during repeated application of acetylcholine plus test compound, there was no interruption in application of compounds. For all calculations, peak current amplitude was normalized to the peak current amplitude evoked by the 10th application of acetylcholine. Experimental Results

[1] = Urinary excretion and bladder/urine concentration after oral dosing, clinical program for depression; type: in vivo, human; settings: for excretion unchanged in the urine: human, in vivo
Procedure: One aspect of the present invention is the use of dexmecamylamine as an oral agent for intravesical drug delivery. Oral doses (up to 4 mg BID) of dexmecamylamine evaluated during clinical studies for depression produced concentrations in the bladder in excess of 10 μM. […] Nicotinic receptors, including α3, α7, and β4, are expressed in the bladder urothelium itself. Agents that block nicotinic receptors in the bladder, such as hexamethonium, decrease bladder contractions and may block sensation of urgency. Inhibition of the α3 receptor diminishes bladder contraction frequency and afferent signaling to the brain (via P2X), thereby blocking or reducing the sensation of urgency. […] (Xu et al., Megacystis, mydriasis, and ion channel defect in mice lacking the α3 neuronal nicotinic acetylcholine receptor, Proc. Natl. Acad. Sci., Vol. 96, pp. 5746-5751, May 1999.)
During the dexmecamylamine clinical program for depression, including the initial phase 1 study (conducted by Targacept), ≧90% of orally administered dexmecamylamine was excreted unchanged in the […].

α4β2 = α4β2 (Homo sapiens, UniProt P17787+P43681); settings: 1 μM; cited from earlier work
Sequence of α4β2 (P43681 29-627 limits assumed): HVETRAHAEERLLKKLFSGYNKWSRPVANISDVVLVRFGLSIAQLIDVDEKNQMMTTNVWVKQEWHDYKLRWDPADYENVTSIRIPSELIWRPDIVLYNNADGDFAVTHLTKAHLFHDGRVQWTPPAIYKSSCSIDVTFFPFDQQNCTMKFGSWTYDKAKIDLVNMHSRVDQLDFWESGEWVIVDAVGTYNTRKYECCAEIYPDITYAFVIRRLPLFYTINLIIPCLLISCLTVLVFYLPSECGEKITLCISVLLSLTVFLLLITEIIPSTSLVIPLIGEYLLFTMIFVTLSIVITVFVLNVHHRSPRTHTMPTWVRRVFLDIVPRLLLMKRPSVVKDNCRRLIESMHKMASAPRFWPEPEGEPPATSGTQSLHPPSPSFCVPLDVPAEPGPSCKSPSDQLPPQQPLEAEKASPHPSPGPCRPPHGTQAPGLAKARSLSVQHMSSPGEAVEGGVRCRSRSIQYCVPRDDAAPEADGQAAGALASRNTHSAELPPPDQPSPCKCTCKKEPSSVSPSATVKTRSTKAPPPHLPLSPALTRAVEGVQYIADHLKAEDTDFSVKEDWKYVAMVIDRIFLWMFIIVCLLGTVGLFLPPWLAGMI
Sequence of α4β2 (P17787 26-502): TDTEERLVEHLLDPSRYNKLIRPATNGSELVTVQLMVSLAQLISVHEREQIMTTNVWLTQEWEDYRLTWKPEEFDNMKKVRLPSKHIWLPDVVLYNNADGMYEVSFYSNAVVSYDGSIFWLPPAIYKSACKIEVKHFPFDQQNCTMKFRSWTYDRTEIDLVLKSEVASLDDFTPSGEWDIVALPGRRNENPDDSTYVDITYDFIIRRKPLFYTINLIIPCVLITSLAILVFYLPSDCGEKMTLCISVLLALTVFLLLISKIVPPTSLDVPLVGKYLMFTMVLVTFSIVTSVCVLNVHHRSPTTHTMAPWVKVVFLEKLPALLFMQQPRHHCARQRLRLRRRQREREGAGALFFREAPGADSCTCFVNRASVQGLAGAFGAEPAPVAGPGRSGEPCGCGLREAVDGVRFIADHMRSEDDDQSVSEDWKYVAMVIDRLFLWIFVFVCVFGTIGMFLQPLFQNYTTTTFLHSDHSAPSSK

[2] = system: bladder function in conscious Sprague Dawley rats; assay: Oral administration (gavage) in awake, conscious rats, cystometry; settings: 1 mg/kg oral gavage; for bladder contraction amplitude: compared to baseline/control; for change in spontaneous activity (SA), a surrogate for urge: compared to control; for change in bladder capacity / change in micturition interval / ICI / change in micturition volume: relative to baseline/control
Procedure: A further study was conducted to evaluate the effects of TC-5214 on bladder function in awake, conscious Sprague Dawley rats.
Nine female Sprague Dawley rats received intravesical saline at a rate of 10 mL/hr. Following a 60-minute baseline evaluation, rats were administered dexmecamylamine at a dose of 1 mg/kg by oral gavage, a dose previously determined to be the “No Effect Dose” in safety pharmacology studies. Two hours following the oral administration of dexmecamylamine, cystometric parameters were collected over a period of one hour.

T1 sequence (P32297 32-505): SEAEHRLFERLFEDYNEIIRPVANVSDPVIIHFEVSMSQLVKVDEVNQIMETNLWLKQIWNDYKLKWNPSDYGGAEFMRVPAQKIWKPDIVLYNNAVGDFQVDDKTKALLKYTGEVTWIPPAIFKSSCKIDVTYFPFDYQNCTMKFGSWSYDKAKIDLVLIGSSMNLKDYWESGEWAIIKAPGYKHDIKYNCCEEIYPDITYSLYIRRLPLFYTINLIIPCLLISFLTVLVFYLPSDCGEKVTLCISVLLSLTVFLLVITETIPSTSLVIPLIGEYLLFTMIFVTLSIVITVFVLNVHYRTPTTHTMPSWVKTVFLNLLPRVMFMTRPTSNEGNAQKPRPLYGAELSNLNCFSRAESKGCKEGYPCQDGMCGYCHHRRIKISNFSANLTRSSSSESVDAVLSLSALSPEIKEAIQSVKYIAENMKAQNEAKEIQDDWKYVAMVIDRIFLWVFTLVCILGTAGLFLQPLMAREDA
T1 sequence (P30926 22-498): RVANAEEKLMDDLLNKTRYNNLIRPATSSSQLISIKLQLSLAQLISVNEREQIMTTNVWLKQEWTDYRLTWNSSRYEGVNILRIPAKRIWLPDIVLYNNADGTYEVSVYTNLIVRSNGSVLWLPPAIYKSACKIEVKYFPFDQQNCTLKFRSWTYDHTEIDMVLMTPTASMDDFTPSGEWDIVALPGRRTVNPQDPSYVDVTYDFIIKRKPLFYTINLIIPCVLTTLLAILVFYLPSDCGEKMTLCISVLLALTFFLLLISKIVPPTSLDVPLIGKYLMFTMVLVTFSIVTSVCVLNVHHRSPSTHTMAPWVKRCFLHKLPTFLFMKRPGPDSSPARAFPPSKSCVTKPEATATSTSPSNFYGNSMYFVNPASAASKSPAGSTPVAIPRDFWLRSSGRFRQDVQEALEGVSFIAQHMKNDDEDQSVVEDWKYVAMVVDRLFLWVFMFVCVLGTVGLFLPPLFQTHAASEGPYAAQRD

CNC1(C)[C@H]2CCC(C2)C1(C)C (stereo partly drawn) [TC-5214, (S)—N,2,3,3-tetramethylnorbornan-2-amine]
peak current normalized to 10th ACh application (positive modulation, FIG. 16) (human α3β4 channels; 30 nM compound + 30 μM ACh, first co-application, control = 100, SEM and n in next columns): 113.3
positive modulation of α3β4 function (human α3β4 channels; 30 nM, t-test p<0.05): weak positive modulation
inhibition of human α3β4 receptor (asymptotes to the curve, FIG. 14) (human α3β4 channels; 100 nM compound with acetylcholine): minor to no detectable inhibition
Inhibition by (%) (human α3β4 channels; 100 nM compound, after 10 co-applications of 30 uM Ach and compound): 10% ± 6%
activity at 0.03 µM (human α3β4 channels; CHO, 30 nM compound + 30 μM ACh, successive grid rows = co-applications 1 to 10, control = 100, read-out: peak current amplitude normalized to 10th ACh application, use-dependent inhibition box): 113%
activity at 0.1 µM (human α3β4 channels; CHO, 100 nM compound + 30 μM ACh, successive grid rows = co-applications 1 to 10 at 30 s intervals, control = 100, read-out: peak current amplitude normalized to 10th ACh application, use-dependent inhibition box): 100%
inhibition at 0.1 µM (human α3β4 channels; CHO, 100 nM compound, after 10 co-applications of 30 uM Ach and compound, read-out: Inhibition by (%)): 10.1%
recovery (%) (human α3β4 channels; after 100 nM compound, following 10 application of Ach (30 uM) alone): 96% ± 6%
recovery / persistence of inhibition after wash out (human α3β4 channels; after 30 and 100 nM compound, agonist alone): full recovery
expected mean concentrations (urine) in humans ([1]; 0.5 mg BID dosing): approximately 3 μM
mean urine concentrations ([1]; 1 mg BID): approximately 6 μM
excretion unchanged in the urine [1]: eliminated unchanged in the urine
excretion unchanged in the urine ([1]; listed as dexmecamylamine): excreted almost entirely unchanged in the urine
concentrations in the bladder ([1]; oral doses up to 4 mg BID): > 10 µM
orally administered dose excreted unchanged in the bladder ([1]; oral, clinical program for depression incl. initial phase 1 study): ≥ 90%
modulation of α4β2 function (α4β2): positive modulation
bladder contraction amplitude [2]: placebo-like
bladder contraction amplitude ([2]; listed as dexmecamylamine): without producing detrimental changes; also recorded: insignificant effect
change in spontaneous activity (SA), a surrogate for urge [2]: statistically significant differential
change in spontaneous activity (SA), a surrogate for urge ([2]; listed as dexmecamylamine): significant decrease
bladder compliance ([2]; relative to baseline): without producing detrimental changes
micturition pressure ([2]; relative to baseline): without producing detrimental changes
change in bladder capacity [2]: statistically significant increase
change in micturition interval / ICI [2]: statistically significant increase
change in micturition volume [2]: statistically significant increase
change in bladder capacity ([2]; listed as dexmecamylamine): statistically significant (Student paired-t test) increases
change in micturition interval / ICI ([2]; listed as dexmecamylamine): statistically significant (Student paired-t test) increases
change in micturition volume ([2]; listed as dexmecamylamine): statistically significant (Student paired-t test) increases
micturition interval ([2]; Last 1H (from 2 h after dosing), baseline First 1H 6.44 ± 1.24, FIG. 25 gives minutes): 9.44 ± 1.87
RV (Bcap-MV) ([2]; Last 1H, baseline First 1H 0.06 ± 0.02): 0.09 ± 0.04
B compliance ([2]; Last 1H, baseline First 1H 0.11 ± 0.03): 0.13 ± 0.03
Bcap ([2]; Last 1H, baseline First 1H 1.04 ± 0.24): 1.58 ± 0.31
SA (IMP-BP) ([2]; Last 1H, baseline First 1H 6.55 ± 2.01): 6.99 ± 2.57
BP (baseline) ([2]; Last 1H, baseline First 1H 10.39 ± 1.96): 8.60 ± 1.10
IMP ([2]; Last 1H, baseline First 1H 16.94 ± 3.94): 15.6 ± 2.91
TP ([2]; Last 1H, baseline First 1H 23.27 ± 3.82): 23.3 ± 2.0
